Columns and labels:
Experiment in all cases: cell-free TR-FRET co-activator peptide displacement
Format in all cases: binding
Conditions in all cases: read-out: EC50
ERα = molecular target: T1, ERα (Homo sapiens, UniProt P03372)
T1 sequence (P03372 311-547 limits assumed): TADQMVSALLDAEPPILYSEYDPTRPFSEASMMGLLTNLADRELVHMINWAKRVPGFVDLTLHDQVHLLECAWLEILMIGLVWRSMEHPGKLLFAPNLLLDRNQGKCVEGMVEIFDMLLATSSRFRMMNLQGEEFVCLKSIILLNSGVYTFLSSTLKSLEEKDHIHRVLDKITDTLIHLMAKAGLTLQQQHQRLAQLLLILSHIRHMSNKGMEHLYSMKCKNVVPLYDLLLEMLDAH

ERβ = ERβ (Homo sapiens, UniProt Q92731)
[1] = molecular target: T2, estrogen-related receptor α (ERRα) (Homo sapiens, UniProt P11474)
T2 sequence (P11474 193-423 limits assumed): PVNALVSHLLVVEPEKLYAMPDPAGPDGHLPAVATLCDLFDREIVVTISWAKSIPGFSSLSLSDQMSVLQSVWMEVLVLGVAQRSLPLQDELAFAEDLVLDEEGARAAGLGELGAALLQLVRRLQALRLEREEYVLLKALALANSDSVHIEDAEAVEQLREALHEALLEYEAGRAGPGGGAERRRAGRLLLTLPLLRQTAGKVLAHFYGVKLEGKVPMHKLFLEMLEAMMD

Chain of ERβ (Q92731 264-498 limits assumed): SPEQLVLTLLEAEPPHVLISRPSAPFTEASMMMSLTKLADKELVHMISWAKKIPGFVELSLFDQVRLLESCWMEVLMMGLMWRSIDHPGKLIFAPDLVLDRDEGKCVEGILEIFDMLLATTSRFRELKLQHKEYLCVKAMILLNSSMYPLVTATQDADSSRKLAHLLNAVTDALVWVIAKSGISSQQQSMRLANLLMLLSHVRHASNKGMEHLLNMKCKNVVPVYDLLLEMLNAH

- IC50 (ERα): 200 ± 200 nM
- IC50 (ERβ): 500 ± 200 nM
- IC50 [1]: 700 ± 100 nM
Compound: C[C@@H]1Cc2cc(O)ccc2[C@H]2CC[C@]3(C)/C(=C/COCCN(C)C)CC[C@H]3[C@H]12 [SR16388, 21-[2-(N,N-dimethylamino)ethyl]oxy-7a-methyl-19-norpregna-1,3,5(10),17(20)-tetraen-3-ol]

— article PMC2918268 (Biochemical pharmacology, 2010)
